Data on one molecule can be found in patent US20060128634A1, “Alpha, alpha-disubstituted benzylglycine derivatives as HIV protease inhibitors” (priority 2002, published 2006).

≈ marks a conversion by molar mass, not a printed value.

The test concerns HIV-1 (RF). Kind of test: HIV RNA assay: microplate based compound evaluation in HIV-1 infected MT-2 cells. Particulars: Human immunodeficiency virus 1, MT2; HIV-1 (RF) infected MT-2 cells; value used to standardize the virus inoculum; read-out: IC90 (concentration of compound required to reduce the HIV RNA level by 90%). The class given is cell-based. How it is done: Plasmid pDAB 72 containing both gag and pol sequences of BH10 (bp 113-1816) cloned into PTZ 19R was prepared according to Erickson-Vitanen et al. AIDS Research and Human Retroviruses 1989, 5, 577. The plasmid was linearized with Bam HI prior to the generation of in vitro RNA transcripts using the Riboprobe Gemini system II kit (Promega) with T7 RNA polymerase. Synthesized RNA was purified by treatment with RNase free DNAse (Promega), phenol-chloroform extraction, and ethanol precipitation. RNA transcripts were dissolved in water, and stored at −70EC. The concentration of RNA was determined from the A260.
Biotinylated capture probes were purified by HPLC after synthesis on an Applied Biosystems (Foster city, Calif.) DNA synthesizer by addition of biotin to the 5N terminal end of the oligonucleotide, using the biotin-phosphoramidite reagent of Cocuzza, Tet. Lett. 1989, 30, 6287. […]
MT-2 and MT-4 cells were maintained in RPMI 1640 supplemented with 5% fetal calf serum (FCS) for MT-2 cells or 10% FCS for MT-4 cells, 2 mM L-glutamine and 50 μg/mL gentamycin, all from Gibco. […] Infectious titers of HIV-1(RF) stocks were 1-3×10^7 PFU (plaque forming units)/mL as measured by plaque assay on MT-2 cells (see below). […]

Take `Nc1ccn([C@H]2CC[C@@H](CO)O2)c(=O)n1` [ddC, dideoxycytidine]: the IC90 was 0.2 µg/mL (≈ 0.947 µM).
